Where two headings read alike, the source gives them in different places.

The nature of series [1]: Compound cytotoxicity, XTT-based colorimetric assay. Type of series: cell-based. To be noted: human, uninfected MT2 cells, day 4, XTT. On the procedure:
Compound cytotoxicity and the corresponding CC50 values were determined using the same protocol as described in the antiviral assay except that uninfected cells were used. Cytotoxicity was assessed on day 4 in uninfected MT2 cells by using a XTT (2,3-bis[2-Methoxy-4-nitro-5-sulfophenyl]-2H-tetrazolium-5-carboxyanilide inner salt)-based colorimetric assay (Sigma-Aldrich, St Louis, Mo.).
(Formazan colour is commonly taken as a measure of viable cells.)

The subject of series [2] is recombinant NL4-3 virus (nef section replaced with Renilla luciferase gene) in MT-2 cells. Kind of series: HIV cell culture assay (antiviral activity, luciferase readout). It is filed as cell-based. On the procedure:
HIV cell culture assay—MT-2 cells, 293T cells and the proviral DNA clone of NL4-3 virus were obtained from the NIH AIDS Research and Reference Reagent Program. MT-2 cells were propagated in RPMI 1640 media supplemented with 10% heat inactivated fetal bovine serum (FBS), 100 jag/ml penicillin G and up to 100 units/mL streptomycin. The 293T cells were propagated in DMEM media supplemented with 10% heat inactivated FBS, 100 μg/mL penicillin G and 100 μg/mL streptomycin. A recombinant NL4-3 proviral clone, in which a section of the nef gene was replaced with the Renilla luciferase gene, was used to make the reference virus used in these studies. The recombinant virus was prepared through transfection of the recombinant NL4-3 proviral clone into 293T cells using Transit-293 Transfection Reagent from Mirus Bio LLC (Madison, Wis.). Supernatant was harvested after 2-3 days and the amount of virus present was titered in MT-2 cells using luciferase enzyme activity as a marker by measuring luciferase enzyme activity. Luciferase was quantitated using the EnduRen Live Cell Substrate from Promega (Madison, Wis.). Antiviral activities of compounds toward the recombinant virus were quantified by measuring luciferase activity in MT-2 cells infected for 4-5 days with the recombinant virus in the presence of serial dilutions of the compound.
(Johnson V A, Byington R T. Infectivity Assay. In Techniques in HIV Research. ed. Aldovini A, Walker B D. 71-76. New York: Stockton Press. 1990).

Setting [3] is: Renilla, NL43, MT-2 cells infected for 4-5 days with recombinant NL4-3 Renilla luciferase virus.

Consider `COc1ccc(N(C)C(=O)[C@H](Cc2ccccc2)NC(=O)NS(=O)(=O)Nc2ccc(Br)cc2)cc1` [CA-16], for which the cytotoxic concentration (CC50) (in general, the concentration giving 50% cytotoxicity) at 4 days in series [1] was greater than 100 µM. For the same compound, the concentration for a half-maximal effect (EC50) – broadly, the concentration needed to bring the measured effect to its halfway point – in series [2] (setting [3]) came out at 0.09 µM.

For the compound `COc1ccc(N(C)C(=O)[C@H](Cc2ccccc2)NC(=O)NS(=O)(=O)Nc2ccc(C)c(C)c2)cc1` [CA-13], in series [1], the half-maximal cytotoxic concentration (CC50) at 4 days was greater than 100 µM. In addition, in series [2] (setting [3]), the concentration giving a half-maximal response (EC50) is 0.06 µM.

As for `CN(C(=O)[C@H](Cc1cc(F)cc(F)c1)NC(=O)NS(=O)(=O)Nc1ccc(C(C)(C)C)cc1)c1ccc2scnc2c1` [ZY-11], the CC50 at 4 days in series [1] was determined as 66.9 µM. For the same compound, in series [2] (setting [3]), the concentration for a half-maximal effect (EC50) was determined as 0.08 µM.

In series [1], `CN(C(=O)[C@H](Cc1cc(F)cc(F)c1)NC(=O)NS(=O)(=O)n1ncc2cc(F)ccc21)c1ccc2scnc2c1` [ZY-20] showed a CC50 at 4 days greater than 100 µM. Besides, the concentration giving a half-maximal response (EC50) in series [2] (setting [3]) is 4.19 µM.

`COc1ccc(N(C)C(=O)[C@H](Cc2ccccc2)NC(=O)NS(=O)(=O)NCc2cccc(-n3cccn3)c2)cc1` [JB-47] gave a 50% cytotoxic concentration (CC50) at 4 days in series [1] greater than 100 µM. The concentration giving a half-maximal response (EC50) in series [2] (setting [3]) is 3.41 µM.

For `COc1ccc(N(C)C(=O)[C@H](Cc2ccccc2)NC(=O)NS(=O)(=O)NCc2cc(C)on2)cc1` [JB-59], the half-maximal cytotoxic concentration (CC50) at 4 days in series [1] is greater than 100 µM. The 50% effective concentration (EC50) in series [2] (setting [3]) amounted to 1.86 µM.

On to `Cc1ccc(N(C)C(=O)[C@H](Cc2cc(F)cc(F)c2)NC(=O)NS(=O)(=O)N2CCc3cccnc32)nc1` [GW-4], for which the 50% cytotoxic concentration (CC50) at 4 days in series [1] is greater than 100 µM. Also, in series [2] (setting [3]), the 50% effective concentration (EC50) came to 0.22 µM.

In series [1], `COc1ccc(N(C)C(=O)[C@H](Cc2ccccc2)NC(=O)NS(=O)(=O)N2Cc3ccccc3S2(=O)=O)cc1` [JB-79] gave a CC50 at 4 days greater than 100 µM. The EC50 in series [2] (setting [3]) stood at 8.61 µM.

In turn, `CN(C(=O)[C@H](Cc1cc(F)cc(F)c1)NC(=O)NS(=O)(=O)N(C)c1ccccc1F)c1ccc2scnc2c1` [CA-117] displayed a 50% cytotoxic concentration (CC50) at 4 days in series [1] greater than 100 µM. Moreover, in series [2] (setting [3]), the EC50 stood at 0.12 µM.

`CN(C(=O)[C@H](Cc1cc(F)cc(F)c1)NC(=O)NS(=O)(=O)NCC1CC1)c1ccc2scnc2c1` [CA-127] came in with a CC50 at 4 days in series [1] greater than 100 µM. For the same compound, the concentration for a half-maximal effect (EC50) in series [2] (setting [3]) was 0.06 µM.

The compound `CN(C(=O)[C@H](Cc1cc(F)cc(F)c1)NC(=O)NS(=O)(=O)N1CCC(c2ccccc2)CC1)c1ccc2scnc2c1` [CA-156] registered a cytotoxic concentration (CC50) at 4 days in series [1] of 99.2 µM. For the same compound, the half-maximal effective concentration (EC50) in series [2] (setting [3]) is 8.32 µM.

In series [1], `COc1ccc(N(C)C(=O)[C@H](Cc2ccccc2)NC(=O)NS(=O)(=O)Nc2ccc(NC(C)=O)cc2)cc1` [CA-17] came in with a CC50 at 4 days greater than 100 µM. For the same compound, the concentration for a half-maximal effect (EC50) in series [2] (setting [3]) was 1.94 µM.

In series [1], `CN(C(=O)[C@H](Cc1cc(F)cc(F)c1)NC(=O)NS(=O)(=O)N1CC(C)(O)C1)c1ccc2scnc2c1` [CA-129] registered a CC50 at 4 days greater than 100 µM. The concentration giving a half-maximal response (EC50) in series [2] (setting [3]) came out at 0.14 µM.

In series [1], `COc1cncc(N(C)C(=O)[C@H](Cc2cc(F)cc(F)c2)NC(=O)NS(=O)(=O)N2CCc3cccnc32)c1` [BB-19] showed a CC50 at 4 days greater than 100 µM. Also, the EC50 in series [2] (setting [3]) came out at 3.27 µM.

Turning to `CN(C(=O)[C@H](Cc1cc(F)cc(F)c1)NC(=O)NS(=O)(=O)N1CCc2cccnc21)c1ccc2sc(=O)n(C)c2c1` [GW-19], the CC50 at 4 days in series [1] was greater than 100 µM. In addition, the EC50 in series [2] (setting [3]) stood at 0.06 µM.

In series [1], `COc1ccc(N(C)C(=O)[C@H](Cc2ccccc2)NC(=O)NS(=O)(=O)Nc2ccc(-n3cccc3)cc2)cc1` [CA-45] came in with a 50% cytotoxic concentration (CC50) at 4 days greater than 33.3 µM. Further, the EC50 in series [2] (setting [3]) amounted to 0.52 µM.

`COc1ccc(N(C)C(=O)[C@H](Cc2ccccc2)NC(=O)NS(=O)(=O)Nc2ccc(C(C)C)cc2)cc1` [CA-21] registered a CC50 at 4 days in series [1] greater than 100 µM. Also, the EC50 in series [2] (setting [3]) was found to be 0.08 µM.

In the case of `CN(C(=O)[C@H](Cc1ccccc1)NC(=O)NS(=O)(=O)Nc1ccccc1Cl)c1ccc2ncccc2c1` [JB-10], in series [1], the CC50 at 4 days was greater than 100 µM. Moreover, in series [2] (setting [3]), the concentration giving a half-maximal response (EC50) came out at 0.05 µM.

In series [1], `CC1CN(S(=O)(=O)NC(=O)N[C@@H](Cc2cc(F)cc(F)c2)C(=O)N(C)c2ccc3scnc3c2)c2ncccc21` (single isomer, unassigned) [VN-14] yielded a cytotoxic concentration (CC50) at 4 days greater than 100 µM.

Regarding `COc1ccc(N(C)C(=O)[C@H](Cc2ccccc2)NC(=O)NS(=O)(=O)NCc2n[nH]c3ccccc23)cc1` [JB-67], the EC50 in series [2] (MT-2 cells infected for 4-5 days with recombinant NL4-3 Renilla luciferase virus, read-out: EC50) worked out at 0.18 µM.

The record behind these values is patent US10221129B2, “Inhibitors of human immunodeficiency virus replication” (ViiV HEALTHCARE UK (NO.5) LIMITED, priority 2015, dated 2019).
